Data on eight compounds can be found in US20260374773A1, “MULTI-CYCLIC IRAK AND FLT3 INHIBITING COMPOUNDS AND USES THEREOF” (CHILDREN'S HOSPITAL MEDICAL CENTER, priority 2022, published 2026).

The target in one experiment is T1, FLT3 D835V (Homo sapiens, UniProt P36888, D835V).
T1 sequence (P36888 27-993 D835V): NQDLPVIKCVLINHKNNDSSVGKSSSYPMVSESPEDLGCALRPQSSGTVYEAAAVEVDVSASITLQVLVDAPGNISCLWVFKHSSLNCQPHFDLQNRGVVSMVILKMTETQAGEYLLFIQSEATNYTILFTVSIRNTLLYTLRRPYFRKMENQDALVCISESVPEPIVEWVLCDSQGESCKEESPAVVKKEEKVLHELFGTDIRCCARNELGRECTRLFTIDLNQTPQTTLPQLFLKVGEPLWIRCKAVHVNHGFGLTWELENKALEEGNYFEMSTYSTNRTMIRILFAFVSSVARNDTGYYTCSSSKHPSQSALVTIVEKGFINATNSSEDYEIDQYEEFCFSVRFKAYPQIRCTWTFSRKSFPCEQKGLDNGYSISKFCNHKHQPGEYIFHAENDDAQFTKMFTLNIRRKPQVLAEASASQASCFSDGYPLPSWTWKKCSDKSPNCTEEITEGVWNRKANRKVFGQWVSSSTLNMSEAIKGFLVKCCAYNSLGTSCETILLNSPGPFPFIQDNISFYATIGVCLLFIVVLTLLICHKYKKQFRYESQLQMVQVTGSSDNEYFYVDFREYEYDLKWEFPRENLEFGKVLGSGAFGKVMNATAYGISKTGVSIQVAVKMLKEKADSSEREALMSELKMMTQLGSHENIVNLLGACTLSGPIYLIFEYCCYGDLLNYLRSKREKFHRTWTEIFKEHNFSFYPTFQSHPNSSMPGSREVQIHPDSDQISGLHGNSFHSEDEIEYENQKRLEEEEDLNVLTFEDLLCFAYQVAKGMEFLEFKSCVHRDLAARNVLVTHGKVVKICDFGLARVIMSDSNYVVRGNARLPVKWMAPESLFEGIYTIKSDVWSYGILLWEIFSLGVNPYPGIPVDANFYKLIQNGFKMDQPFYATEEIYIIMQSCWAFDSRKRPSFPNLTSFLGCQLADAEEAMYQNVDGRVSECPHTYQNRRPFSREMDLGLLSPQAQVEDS
The experiment is described as follows: DiscoverX KINOMEscan active site-directed competition binding, FLT3 D835V. Particulars: Table 12; no ATP.
From the text: (§1) Kinase binding data were obtained for various exemplary compounds prepared according to Examples 1-8 using the DiscoverX KINOMEscan® active site-directed competition binding site-directed assay protocol described below. […] As a result, the data report thermodynamic interaction affinities (Kd values), rather than IC50 values that are dependent on ATP concentrations. The assay uses a DNA-tagged version of the protein kinase, and an immobilized ligand bound to a solid support. Compounds that directly or indirectly prevent kinase binding to the immobilized ligand reduce the amount of kinase captured on the solid support, which is detected using an ultra-sensitive qPCR method. Affinity constants reported from the assay have been reported to be independent of the immobilized ligand used that is coupled to the solid support (See supplemental information in Fabian, M. A. et. al., (2005) Nat. Biotechnol. 23, 329-336; Wodicka, L. M. et. al., (2010) Chem. Biol. 17, 1241-1249.)
Kinase-tagged T7 phage strains were prepared in an E. coli host derived from the BL21 strain. E. coli were grown to log-phase and infected with T7 phage and incubated with shaking at 32 °C until lysis. The lysates were centrifuged and filtered to remove cell debris. The remaining kinases were produced in HEK-293 cells and subsequently tagged with DNA for qPCR detection. Streptavidin-coated magnetic beads were treated with biotinylated small molecule ligands for 30 minutes at room temperature to generate affinity resins for kinase assays. The liganded beads were blocked with excess biotin and washed with blocking buffer (SeaBlock (Pierce), 1% BSA, 0.05% Tween 20, 1 mM DTT) to remove unbound ligand and to reduce non-specific binding. […] Test compounds were prepared as 111x stocks in 100% DMSO. Kds were determined using an 11-point 3-fold compound dilution series with three DMSO control points. All compounds for Kd measurements are distributed by acoustic transfer (non-contact dispensing) in 100% DMSO. The compounds were then diluted directly into the assays such that the final concentration of DMSO was 0.9%. All reactions were performed in polypropylene 384-well plates. Each was a final volume of 0.02 mL. The assay plates were incubated at room temperature with shaking for 1 hour and the affinity beads were washed with wash buffer (1×PBS, 0.05% Tween 20). The beads were then re-suspended in elution buffer (1×PBS, 0.05% Tween 20, 0.5 μM nonbiotinylated affinity ligand) and incubated at room temperature with shaking for 30 minutes. The kinase concentration in the eluates was measured by qPCR. Binding constants (Kds) were calculated with a standard dose-response curve using the Hill equation. The Hill Slope was set to −1. Curves were fitted using a non-linear least square fit with the Levenberg-Marquardt algorithm.
as §1, with “9-12” for “1-8”
Kinase-tagged T7 phage strains were prepared in an E. coli host derived from the BL21 strain. […]
One may read the Kd as a measure of binding affinity in units of concentration. A lower Kd goes with tighter binding. For `COc1cn2ncc(-c3nc(N[C@H]4CNCC[C@@H]4F)c(C#N)cc3F)c2nc1C(C)(C)O` [Compound 10, 5-fluoro-2-(((3S,4S)-4-fluoropiperidin-3-yl)amino)-6-(5-(2-hydroxypropan-2-yl)-6-methoxypyrazolo[1,5-a]pyrimidin-3-yl)nicotinonitrile], the Kd is below 0.17 nM. Same read-out and setting: the same measure for `COc1cn2ncc(-c3nc(N[C@H]4CNCC[C@@H]4F)c(C#N)cc3F)c2nc1C1CC1` [Compound 7, 6-(5-cyclopropyl-6-methoxypyrazolo[1,5-a]pyrimidin-3-yl)-5-fluoro-2-(((3S,4S)-4-fluoropiperidin-3-yl)amino)nicotinonitrile]: below 0.17 nM. Same read-out and setting: the same measure for `COc1cn2ncc(-c3nc(N[C@H]4CNCC[C@@H]4F)c(F)cc3F)c2nc1C(C)(C)O` [Compound 13, 2-(3-(3,5-difluoro-6-(((3S,4S)-4-fluoropiperidin-3-yl)amino)pyridin-2-yl)-6-methoxypyrazolo[1,5-a]pyrimidin-5-yl)propan-2-ol]: below 0.17 nM.

The experiment is the same for the next values; noted with them: Table 18; no ATP.
In turn, `COc1cn2ncc(-c3nc(N[C@@H]4CCCNC4)ncc3F)c2nc1C1CC1` [Compound 14a, (R)-4-(5-cyclopropyl-6-methoxypyrazolo[1,5-a]pyrimidin-3-yl)-5-fluoro-N-(piperidin-3-yl)pyrimidin-2-amine] gave a dissociation constant (Kd) below 0.17 nM. Compound `COc1cn2ncc(-c3nc(N[C@H]4CNCC[C@@H]4F)ncc3F)c2nc1C(C)(C)O` [Compound 6a, 2-(3-(5-fluoro-2-(((3S,4S)-4-fluoropiperidin-3-yl)amino)pyrimidin-4-yl)-6-methoxypyrazolo[1,5-a]pyrimidin-5-yl)propan-2-ol] yielded a Kd below 0.17 nM. Still for that read-out and setting: the same measure for `COc1cn2ncc(-c3nc(N[C@H]4CNCC[C@@H]4F)ncc3F)c2nc1C1CC1` [Compound 15a, 4-(5-cyclopropyl-6-methoxypyrazolo[1,5-a]pyrimidin-3-yl)-5-fluoro-N-((3S,4S)-4-fluoropiperidin-3-yl)pyrimidin-2-amine]: 0.28 nM; for `COc1cn2ncc(-c3cncc(N[C@H]4CNCC[C@@H]4F)n3)c2nc1C1CC1` [Compound 12a, 6-(5-cyclopropyl-6-methoxypyrazolo[1,5-a]pyrimidin-3-yl)-N-((3S,4S)-4-fluoropiperidin-3-yl)pyrazin-2-amine]: below 0.17 nM; for `COc1cn2ncc(-c3ccnc(N[C@H]4CNCC[C@@H]4F)n3)c2nc1C1CC1` [Compound 7a, 4-(5-cyclopropyl-6-methoxypyrazolo[1,5-a]pyrimidin-3-yl)-N-((3S,4S)-4-fluoropiperidin-3-yl)pyrimidin-2-amine]: 0.48 nM.
